From PubChem BioAssay (NCI)
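Five concentrations, 48 hours, 96-well plates. At the TGI there is no net growth.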

What was measured:
Test in all cases: NCI-60 cell line screen, 48 h
OVCAR-4 ovarian = test system: OVCAR-4 ovarian
NCI-H23 lung = test system: NCI-H23 lung
SW-620 colon = test system: SW-620 colon
ACHN renal = test system: ACHN renal
HS 578T breast = test system: HS 578T breast
RXF 393 renal = test system: RXF 393 renal
T-47D breast = test system: T-47D breast
HCC-2998 colon = test system: HCC-2998 colon
CCRF-CEM leukemia = test system: CCRF-CEM leukemia
NCI-H522 lung = test system: NCI-H522 lung
KM12 colon = test system: KM12 colon
EKVX NSCLC = test system: EKVX NSCLC
CAKI-1 renal = test system: CAKI-1 renal
HOP-62 NSCLC = test system: HOP-62 NSCLC
NCI/ADR-RES ovarian = test system: NCI/ADR-RES ovarian
SK-OV-3 ovarian = test system: SK-OV-3 ovarian
PC-3 prostate = test system: PC-3 prostate
LOX IMVI melanoma = test system: LOX IMVI melanoma
OVCAR-5 ovarian = test system: OVCAR-5 ovarian
SF-295 CNS = test system: SF-295 CNS
SF-539 CNS = test system: SF-539 CNS
OVCAR-8 ovarian = test system: OVCAR-8 ovarian
U251 CNS = test system: U251 CNS
HCT-116 colon = test system: HCT-116 colon
SR leukemia = test system: SR leukemia
MALME-3M melanoma = test system: MALME-3M melanoma
MOLT-4 leukemia = test system: MOLT-4 leukemia
IGROV1 ovarian = test system: IGROV1 ovarian
HT29 colon = test system: HT29 colon
A498 renal = test system: A498 renal
COLO 205 colon = test system: COLO 205 colon
SNB-75 CNS = test system: SNB-75 CNS
RPMI-8226 leukemia = test system: RPMI-8226 leukemia
786-0 renal = test system: 786-0 renal
NCI-H226 lung = test system: NCI-H226 lung
MDA-MB-231 breast = test system: MDA-MB-231 breast
BT-549 breast = test system: BT-549 breast
DU-145 prostate = test system: DU-145 prostate
A549 NSCLC = test system: A549 NSCLC
UACC-62 melanoma = test system: UACC-62 melanoma
HL-60(TB) leukemia = test system: HL-60(TB) leukemia
MDA-N = test system: MDA-N
MDA-MB-435 = test system: MDA-MB-435
SK-MEL-5 melanoma = test system: SK-MEL-5 melanoma
SF-268 CNS = test system: SF-268 CNS
HCT-15 colon = test system: HCT-15 colon
OVCAR-3 ovarian = test system: OVCAR-3 ovarian
UACC-257 melanoma = test system: UACC-257 melanoma
TK-10 renal = test system: TK-10 renal
SK-MEL-28 melanoma = test system: SK-MEL-28 melanoma
HOP-92 NSCLC = test system: HOP-92 NSCLC
UO-31 renal = test system: UO-31 renal
K-562 leukemia = test system: K-562 leukemia
MCF7 breast = test system: MCF7 breast
NCI-H460 lung = test system: NCI-H460 lung
M14 melanoma = test system: M14 melanoma
SNB-19 CNS = test system: SNB-19 CNS
SN12C renal = test system: SN12C renal
SK-MEL-2 melanoma = test system: SK-MEL-2 melanoma
KM20L2 colon = test system: KM20L2 colon
SNB-78 CNS = test system: SNB-78 CNS
DMS 114 small cell lung = test system: DMS 114 small cell lung

Measured: TGI

COc1cc(OC)cc(Oc2nc3ccc(C(F)(F)F)cc3nc2-c2ccccc2)c1
> 100 µM: OVCAR-4 ovarian | NCI-H23 lung | SW-620 colon | ACHN renal | HS 578T breast | RXF 393 renal | T-47D breast | HCC-2998 colon | CCRF-CEM leukemia | NCI-H522 lung | KM12 colon | EKVX NSCLC | CAKI-1 renal | HOP-62 NSCLC | NCI/ADR-RES ovarian | SK-OV-3 ovarian | PC-3 prostate | LOX IMVI melanoma | OVCAR-5 ovarian | SF-295 CNS | SF-539 CNS | OVCAR-8 ovarian | U251 CNS | HCT-116 colon | SR leukemia | MALME-3M melanoma | MOLT-4 leukemia | IGROV1 ovarian | HT29 colon | A498 renal | COLO 205 colon | SNB-75 CNS | RPMI-8226 leukemia | 786-0 renal | NCI-H226 lung | MDA-MB-231 breast | BT-549 breast | DU-145 prostate | A549 NSCLC | UACC-62 melanoma | HL-60(TB) leukemia | MDA-N | MDA-MB-435 | SK-MEL-5 melanoma | SF-268 CNS | HCT-15 colon | OVCAR-3 ovarian | UACC-257 melanoma | TK-10 renal | SK-MEL-28 melanoma | HOP-92 NSCLC | UO-31 renal | K-562 leukemia | MCF7 breast | NCI-H460 lung

COC(=O)c1nc2n(n1)-c1ccccc1C(=O)N(Cc1ccccc1)C2
> 100 µM: OVCAR-4 ovarian | NCI-H23 lung | SW-620 colon | ACHN renal | HS 578T breast | RXF 393 renal | T-47D breast | HCC-2998 colon | CCRF-CEM leukemia | NCI-H522 lung | KM12 colon | EKVX NSCLC | CAKI-1 renal | HOP-62 NSCLC | NCI/ADR-RES ovarian | SK-OV-3 ovarian | PC-3 prostate | LOX IMVI melanoma | OVCAR-5 ovarian | SF-295 CNS | SF-539 CNS | OVCAR-8 ovarian | U251 CNS | HCT-116 colon | SR leukemia | MALME-3M melanoma | MOLT-4 leukemia | IGROV1 ovarian | HT29 colon | A498 renal | M14 melanoma | COLO 205 colon | SNB-19 CNS | RPMI-8226 leukemia | SN12C renal | SK-MEL-2 melanoma | 786-0 renal | NCI-H226 lung | MDA-MB-231 breast | BT-549 breast | DU-145 prostate | A549 NSCLC | UACC-62 melanoma | HL-60(TB) leukemia | MDA-N | MDA-MB-435 | SK-MEL-5 melanoma | SF-268 CNS | HCT-15 colon | OVCAR-3 ovarian | UACC-257 melanoma | TK-10 renal | SK-MEL-28 melanoma | HOP-92 NSCLC | UO-31 renal | K-562 leukemia | MCF7 breast | NCI-H460 lung

N#CN1CCC2CC(=O)CCC2C1 (stereo not drawn)
> 100 µM: OVCAR-4 ovarian | NCI-H23 lung | SW-620 colon | ACHN renal | KM20L2 colon | RXF 393 renal | HCC-2998 colon | KM12 colon | CAKI-1 renal | SK-OV-3 ovarian | LOX IMVI melanoma | OVCAR-5 ovarian | U251 CNS | HCT-116 colon | SR leukemia | MALME-3M melanoma | MOLT-4 leukemia | IGROV1 ovarian | M14 melanoma | SNB-75 CNS | SNB-19 CNS | SN12C renal | SK-MEL-2 melanoma | 786-0 renal | NCI-H226 lung | SNB-78 CNS | A549 NSCLC | UACC-62 melanoma | HL-60(TB) leukemia | SF-268 CNS | HCT-15 colon | OVCAR-3 ovarian | TK-10 renal | SK-MEL-28 melanoma | HOP-92 NSCLC | UO-31 renal | DMS 114 small cell lung | K-562 leukemia

CCOP(=O)(OCC)/C(F)=C/c1ccc(F)cc1
> 100 µM: OVCAR-4 ovarian | NCI-H23 lung | SW-620 colon | ACHN renal | HS 578T breast | RXF 393 renal | T-47D breast | CCRF-CEM leukemia | NCI-H522 lung | KM12 colon | EKVX NSCLC | CAKI-1 renal | HOP-62 NSCLC | NCI/ADR-RES ovarian | SK-OV-3 ovarian | PC-3 prostate | LOX IMVI melanoma | OVCAR-5 ovarian | SF-295 CNS | SF-539 CNS | OVCAR-8 ovarian | U251 CNS | HCT-116 colon | SR leukemia | MALME-3M melanoma | MOLT-4 leukemia | IGROV1 ovarian | HT29 colon | A498 renal | M14 melanoma | COLO 205 colon | SNB-75 CNS | SNB-19 CNS | RPMI-8226 leukemia | SN12C renal | SK-MEL-2 melanoma | 786-0 renal | MDA-MB-231 breast | BT-549 breast | DU-145 prostate | A549 NSCLC | UACC-62 melanoma | HL-60(TB) leukemia | MDA-N | MDA-MB-435 | SK-MEL-5 melanoma | SF-268 CNS | HCT-15 colon | OVCAR-3 ovarian | UACC-257 melanoma | TK-10 renal | SK-MEL-28 melanoma | HOP-92 NSCLC | UO-31 renal | K-562 leukemia | MCF7 breast | NCI-H460 lung
